Each block holds one compound with its values, some of them ahead of it.
Key:
HT-29 tumor = test: Biodistribution of [^111In]ITDA2 in HT-29 tumor cancer-bearing mouse; format: in vivo; conditions: from Tables 8 and 9
Description: HT-29 cells (5×10^6 cells/mouse) and MDA-MB-231 cells (1×10^7 cells/mouse) were subcutaneously inoculated into the left shoulders of 5-week old male BALB/c nude mice, respectively, and the mice were used when the tumor diameter reached 6 to 10 mm. A saline solution (100 μL) in which [^111In]ITDA2 (40 kBq) had been dissolved was administered to each of the HT-29 tumor or MDA-MB-231 tumor cancer-bearing mice (n=5) via the tail vein. The HT-29 tumor cancer-bearing mice were slaughtered after the lapse of 1, 4, 8, and 24 hours from the administration, the MDA-MB-231 tumor cancer-bearing mouse was slaughtered after the lapse of 24 hours from the administration, and the blood, spleen, pancreas, stomach, intestines, kidney, liver, heart, lungs, brain, tumor, and muscle were recovered from each of the mice. The weight of each organ was measured, and the amount of radioactivity in each organ was measured by using a gamma counter. The accumulation of radioactivity in each organ except for stomach was expressed by % injected dose/g organ obtained by dividing the ratio of the amount of radioactivity of each organ to the administered amount of radioactivity by the organ weight. The stomach was expressed by % injected dose.

CA-IX [1] = target: T1, CA-IX (Homo sapiens, UniProt Q16790); test: In vitro autoradiography of tumor sections using [^123I]HIC205; format: binding; parameters: Fresh-frozen sections (each 14 μm) were prepared from a tumor having a tumor volume of around 200 mm^3; from tissue
Description: Fresh-frozen sections (each 14 μm) were prepared from a tumor having a tumor volume of around 200 mm^3, and then the prepared fresh-frozen sections were sufficiently air dried. The dried fresh-frozen sections were immersed in Tris-buffered saline (TBS), and then immersed in a TBS adjusted so as to have 5 kBq/ml of [^123I]HIC205 and a solution containing 400 μM acetazolamide in the TBS (both contained 0.1% dimethyl sulfoxide (DMSO)), and both the sections were incubated at the same time (at 37° C. for 30 minutes). After that, the resultant sections were washed with TBS and 40% ethanol (EtOH)-containing TBS, respectively, and then air dried. The air-dried sections were each brought into contact with an imaging plate (IP), and were read out by a bioimaging analyzer BAS2000 (manufactured by FUJIFILM Corporation). The section used for autoradiography (ARG) was directly subjected to immunohistochemistry that was performed by using a goat-derived anti-CA-IX antibody.
The localization of the radioactivity of [^123I]HIC205 and the difference in the binding of [^123I]HIC205 between the individual treatments are shown FIG. 1.
The results of the comparison of the localization of the radioactivity of [^123I]HIC205 with the expression of CA-IX are shown in FIGS. 2A and 2B. […] The region between two arrows indicates the part where the binding of [^123I]HIC205 and the expression of CA-IX are not consistent. Further, FIG. 2B is an enlarged view showing the region between the two arrows of the result of immunohistochemical staining of animal B shown in the lower left of FIG. 2A, in which the result of immunohistochemical staining of FIG. 2A was shown on the left side, and an enlarged view of the region between the two arrows was shown on the right side. The parts indicated by the arrows indicate the overlap of the section.

CA-IX [2] = target: T1, CA-IX; test: Affinity of non-radioactive HIC205 for CA-IX measured by Biacore; format: binding; parameters: purchased R&D Systems Inc
Description: The affinity was measured by using Biacore (manufactured by GE Healthcare). Human CA-IX (manufactured by R&D Systems Inc.) was immobilized on a sensor chip (CM7) by an amino coupling method. After non-radioactive HIC205 was dissolved in 100% dimethyl sulfoxide (DMSO), the obtained solution was diluted with a running buffer in a stepwise manner by 10 times, and a non-radioactive HIC205 solution containing 0.1% DMSO was finally prepared. Based on this, a 2-fold dilution series was prepared with the running buffer containing 0.1% DMSO, and the measurement was performed. In this regard, the composition of the running buffer was 0.01 M HEPES (pH 7.4), 0.15M sodium chloride, and 0.005% v/v Surfactant P20. The sensorgram obtained from each concentration was directly curve fitted by a non-linear least-squares method, and the affinity was calculated.

Tumor/muscle ratio compared with ITDA1 (HT-29 tumor): almost the same value as that of ITDA1
Compound: NS(=O)(=O)c1nn2cc(-c3ccc(NC(=O)CN4CCN(CC(=O)O)CCN(CC(=O)Nc5ccc(-c6cn7nc(S(N)(=O)=O)sc7n6)cc5)CCN(CC(=O)O)CC4)cc3)nc2s1 [ITDA2, 2,2′-(4,10-bis(2-oxo-2-((4-(2-sulfamoylimidazo[2,1-b][1,3,4]thiadiazol-6-yl)phenyl)amino)ethyl)-1,4,7,10-tetraazacyclododecan-1,7-diyl) diacetic acid]
Tumor accumulation compared with ITDA1 (HT-29 tumor): lower values as compared with those of ITDA1
Tumor/blood ratio compared with ITDA1 (HT-29 tumor): lower values as compared with those of ITDA1

Binding on the tumor section with simultaneous incubation with acetazolamide (CA-IX [1]; 400 μM acetazolamide): decreased
Localization of the radioactivity after washing the section with 40% ethanol (CA-IX [1]; 40% ethanol-containing TBS wash): significantly reduced
Binding ability to CA-IX (CA-IX [1]; conclusion of autoradiography): has binding ability to CA-IX
Localization of radioactivity compared with expression site of CA-IX (immunohistochemical staining) (CA-IX [1]; two animals): mostly consistent
Compound: NS(=O)(=O)c1nn2cc(-c3ccc([123I])cc3)nc2s1 [[^123I]HIC205]
Binding on the tumor section (autoradiogram) (CA-IX [1]; 5 kBq/ml, 37° C. for 30 minutes, washed with TBS): confirmed with contrast on the tumor section

Kd (CA-IX [2]; immobilized human CA-IX, n = 1): 109 pM
Dissociation constant (×10^−3) (CA-IX [2]; n = 1): 0.903 ×10^−3 [1/s]
kon (CA-IX [2]; n = 1, read-out: Binding constant (×10^5)): 8.31e+06 M⁻¹ s⁻¹
Compound: NS(=O)(=O)c1nn2cc(-c3ccc(I)cc3)nc2s1 [non-radioactive HIC205, 6-(4-iodophenyl)imidazo[2,1-b][1,3,4]thiadiazole-2-sulfonamide]
